Test results taken from PubChem BioAssay (NCI).
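Values below derive from 48-hour exposures of cells grown in 96-well plates, with endpoints linearly interpolated between the two concentrations bracketing the appropriate inhibition level. The concentration for 50% growth inhibition is given as GI50. TGI: concentration producing complete growth inhibition.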 Peptide text beside a SMILES is read from it. * marks the point of attachment. Cbz = O=C(OCc1ccccc1)*

Tests used:
Experiment in all cases: NCI-60 cell line screen, 48 h; in the data active = GI50 below about 0.43 µM; inactive = the rest
[1] = system: SF-295 CNS
[2] = system: SNB-75 CNS
[3] = system: MDA-MB-231 breast
[4] = system: UACC-62 melanoma
[5] = system: A549 NSCLC
[6] = system: NCI/ADR-RES ovarian
[7] = system: SK-MEL-2 melanoma
[8] = system: HCT-116 colon
[9] = system: OVCAR-5 ovarian
[10] = system: UACC-257 melanoma
[11] = system: NCI-H23 lung
[12] = system: OVCAR-8 ovarian
[13] = system: NCI-H522 lung
[14] = system: SW-620 colon
[15] = system: MOLT-4 leukemia
[16] = system: HT29 colon
[17] = system: MDA-N
[18] = system: MDA-MB-435
[19] = system: DU-145 prostate
[20] = system: U251 CNS
[21] = system: SF-268 CNS
[22] = system: COLO 205 colon
[23] = system: SK-MEL-28 melanoma
[24] = system: KM12 colon
[25] = system: M14 melanoma
[26] = system: UO-31 renal
[27] = system: ACHN renal
[28] = system: SK-OV-3 ovarian
[29] = system: LOX IMVI melanoma
[30] = system: SK-MEL-5 melanoma
[31] = system: SNB-19 CNS
[32] = system: SN12C renal
[33] = system: CCRF-CEM leukemia
[34] = system: RXF 393 renal
[35] = system: MCF7 breast
[36] = system: CAKI-1 renal
[37] = system: NCI-H460 lung
[38] = system: SR leukemia
[39] = system: RPMI-8226 leukemia
[40] = system: HCT-15 colon
[41] = system: IGROV1 ovarian
[42] = system: HS 578T breast
[43] = system: TK-10 renal
[44] = system: MALME-3M melanoma
[45] = system: OVCAR-4 ovarian
[46] = system: PC-3 prostate
[47] = system: EKVX NSCLC
[48] = system: 786-0 renal
[49] = system: OVCAR-3 ovarian
[50] = system: K-562 leukemia
[51] = system: BT-549 breast
[52] = system: HCC-2998 colon
[53] = system: A498 renal
[54] = system: NCI-H226 lung
[55] = system: SF-539 CNS
[56] = system: HL-60(TB) leukemia
[57] = system: T-47D breast
[58] = system: HOP-62 NSCLC
[59] = system: HOP-92 NSCLC

CCOC(=O)CCC(NC(=O)CNC(=O)CNC(=O)C(CCC(=O)OCC)NC(=O)C(CCC(=O)OCC)NC(=O)C(CCC(=O)OCC)NC(=O)OCc1ccccc1)C(=O)NC(CCC(=O)OCC)C(=O)NC(CCC(=O)OCC)C(=O)OCC (stereo not given) (Cbz-E(OEt)E(OEt)E(OEt)GGE(OEt)E(OEt)E(OEt)-OEt; configuration not given here)
> 75 µM: TGI [1] | TGI [2] | TGI [3] | TGI [4] | TGI [5] | TGI [6] | TGI [7] | TGI [8] | TGI [9] | TGI [10] | TGI [11] | TGI [12] | TGI [13] | TGI [14] | TGI [15] | TGI [16] | TGI [17] | TGI [18] | TGI [19] | TGI [20] | TGI [21] | TGI [22] | TGI [23] | TGI [24] | TGI [25] | TGI [26] | TGI [27] | TGI [28] | TGI [29] | TGI [30] | TGI [31] | TGI [32] | TGI [33] | TGI [34] | TGI [35] | TGI [36] | TGI [37] | TGI [38] | TGI [39] | TGI [40] | TGI [41] | TGI [42] | TGI [43] | TGI [44] | TGI [45] | TGI [46] | TGI [47] | TGI [48]

COc1ncc(-c2ccc3ncnc(Nc4cccc(Cl)c4)c3c2)cc1NS(C)(=O)=O
64.3 µM: TGI [45]
31.8 µM: TGI [32]
43.2 µM: TGI [33]
13.1 µM: TGI [16]
19.2 µM: TGI [21] | TGI [25]
5.28 µM: TGI [59]
42.4 µM: TGI [58]
6.51 µM: TGI [9]
16.4 µM: TGI [56]
8.69 µM: TGI [11]
18.4 µM: TGI [13]
active: GI50 [2] 0.158 µM | GI50 [9] 0.273 µM | GI50 [57] 0.169 µM | GI50 [26] 0.354 µM | GI50 [35] 0.404 µM | GI50 [41] 0.189 µM | GI50 [43] 0.183 µM
29.1 µM: TGI [6]
31.3 µM: TGI [31]
9.65 µM: TGI [47]
31.6 µM: TGI [20]
12.2 µM: TGI [4]
9.24 µM: TGI [39]
85.3 µM: TGI [50]
3.22 µM: TGI [30]
1.33 µM: TGI [57]
16.6 µM: TGI [46]
8.96 µM: TGI [26]
10.8 µM: TGI [1] | TGI [36]
7.36 µM: TGI [22]
2.94 µM: TGI [53]
13.2 µM: TGI [5] | TGI [40]
> 100 µM: TGI [12] | TGI [27] | TGI [37] | TGI [38]
21.1 µM: TGI [19]
17.3 µM: TGI [18]
inactive: GI50 [1] 1.71 µM | GI50 [3] 1.99 µM | GI50 [4] 1.79 µM | GI50 [49] 1.17 µM | GI50 [50] 4.51 µM | GI50 [51] 1.92 µM | GI50 [5] 1.2 µM | GI50 [6] 2.38 µM | GI50 [7] 2.27 µM | GI50 [8] 2.33 µM | GI50 [11] 1.62 µM | GI50 [12] 3.75 µM | GI50 [13] 2.14 µM | GI50 [14] 3.22 µM | GI50 [52] 1.82 µM | GI50 [53] 0.605 µM | GI50 [15] 1.49 µM | GI50 [16] 1.07 µM | GI50 [54] 4.83 µM | GI50 [18] 2.77 µM | GI50 [19] 0.756 µM | GI50 [55] 2.09 µM | GI50 [20] 4.11 µM | GI50 [21] 1.99 µM | GI50 [56] 0.848 µM | GI50 [22] 1.75 µM | GI50 [23] 1.81 µM | GI50 [24] 3.55 µM | GI50 [25] 2.81 µM | GI50 [27] 0.485 µM | GI50 [28] 0.813 µM | GI50 [29] 1.68 µM | GI50 [30] 1.37 µM | GI50 [31] 3.19 µM | GI50 [32] 1.76 µM | GI50 [33] 2.81 µM | GI50 [34] 1.42 µM | GI50 [58] 1.53 µM | GI50 [36] 0.457 µM | GI50 [37] 1.87 µM | GI50 [38] 3.91 µM | GI50 [39] 2.19 µM | GI50 [40] 1.66 µM | GI50 [42] 0.852 µM | GI50 [59] 0.472 µM | GI50 [45] 4.97 µM | GI50 [46] 2.02 µM | GI50 [47] 0.579 µM | GI50 [48] 2.72 µM
0.815 µM: TGI [41]
16.1 µM: TGI [24]
4.16 µM: TGI [28]
10.9 µM: TGI [8]
19.6 µM: TGI [3]
9.32 µM: TGI [51]
9.92 µM: TGI [55]
14.8 µM: TGI [52]
7.7 µM: TGI [49]
17.7 µM: TGI [14]
5.82 µM: TGI [2]
41.3 µM: TGI [23]
4.79 µM: TGI [34]
1.4 µM: TGI [43]
9.52 µM: TGI [42]
8.25 µM: TGI [7]
24.9 µM: TGI [48]
11.1 µM: TGI [29] | TGI [35]
24.2 µM: TGI [54]
5.21 µM: TGI [15]
